Patent publication US9925206B2, “Compositions and methods for treating bacterial infection” (priority 2015, dated 2018)
Like-named read-outs stand apart in the source and are kept apart here.

Legend:
mucoid PA CF strain FRD1 = details: 15 mM A-NO2-, pH 6.5, anaerobic; cited from earlier work
anaerobic FRD1 biofilms = details: 15 mM NO2-, cited from earlier work
P. aeruginosa (PAO1) = details: 10 mM EDTA; 30 mM NaNO2; 10 mM EDTA-10 mM NaNO2
Protocol: BALB/c mice (8 per group) were infected with 1.7×10^6 P. aeruginosa (PAO1) in 1 mg/ml alginate.
The infected mice (n=8) were treated with either (i) 10 mM PBS, pH 6.5, (ii) 10 mM EDTA in PBS, pH 6.5, (iii) 30 mM NaNO2 in PBS, pH 6.5, or (iv) 10 mM EDTA-10 mM NaNO2 in PBS, pH 6.5. Agents were administered as inhaled therapies beginning at 12 hours post-inoculation and continued once daily.

[1] = cited from earlier work
mucoid FRD1 = details: cited from earlier work
FRD1/pmucA = details: mucA complemented strain, pH values between 6.0 and 7.5; cited from earlier work
P. aeruginosa biofilm = details: acidified nitrite 15, 25, 35 mM and EDTA 1, 5, 10 mM alone, aerobic and anaerobic, 24 hours treatment
Protocol: In order to determine the efficacy of the combination treatment for biofilm elimination, we employed a Crystal Violet assay. This allows us to determine the total biomass of the biofilm.
Crystal Violet stains biofilm mass which is a quantitative measure of biofilm density/thickness, but not necessarily viability (live/dead) of the biomass.
Cultures are grown for 24 hours aerobically or anaerobically, and then treated for 24 hours before assay.
P. aeruginosa was allowed to adhere to 96 well polystyrene 96 well microplates at incubate at 37° C. under aerobic vs. anaerobic conditions. The biofilms were washed with PBS and stained with 1% crystal violet (CV) for 15 minutes at room temperature. The CV was removed and the stained bacteria washed an additional 3 times prior to solubilization of the CV with 95% ethanol. The absorbance at 590 nm was monitored using a microplate reader.

PA strain PAO1 = experiment: Optical density growth/viability of PAO1 with A-NO2-, EDTA and/or tobramycin; type: cell-based, Pseudomonas aeruginosa; details: for growth of PAO1: 15 mM A-NO2- or 1 mM EDTA and 2 μg/ml TOBI
Protocol: FIG. 2 represent optical density measurements with control (untreated) bacteria arbitrarily set to 1.0 after 24 and 48 hr of growth at 37° C. in a standard rich medium known Luria broth (LB). Another experiment included the powerful aminoglycoside antibiotic, tobramycin (TOBI), that is commonly used for the treatment of PA CF/COPD lung infections (Moreau-Marquis S, et al. 2009. Am J Respir Cell Mol Biol 41:305-313; Dal Negro R, et al. 2008. Adv Ther 25:1019-1030). Nitrite was used at 25 mM (aerobic) or 15 mM (anaerobic); EDTA, 1.0 mM; TOBI, 2 μg/ml. Anaerobic LB was supplemented with 0.1 M potassium phosphate, pH 6.5 and 100 mM KNO3 as a terminal electron acceptor for anaerobic growth.

non-mucoid FRD1/pmucA = details: cited from earlier work
[2] = system: mucoid FRD1 and non-mucoid FRD1/pmucA; details: anaerobic 15 mM NO2-, pH 6.5, after 5 days, cited from earlier work
FRD1 = details: mucA mutant FRD1; cited from earlier work
[3] = system: non-mucoid strains, PAO1 and FRD1/pmucA; details: 15 mM A-NO2-, pH 6.5, anaerobic, 4 day incubation; cited from earlier work
P. aeruginosa = experiment: Checkerboard assay of EDTA and antibiotics with and without acidified nitrite background; type: cell-based, Pseudomonas aeruginosa
Protocol: The antibiotic agents used in these studies included Tobramycin, Azithromycin, Colistin, Ticarcillin, Ciprofloxacin, Sulfametoxazole, Sulfamethazine, Tetracycline, Vancomycin, Imipenem, and Cefepime. […] Aerobic samples are incubated for 24 or 48 hours, and anaerobic samples are incubated for 48 hours.

PA = details: EDTA alone; cited from earlier work

acidified nitrite [A-NO2^−]
rate of killing of mucoid FRD1 (mucoid PA CF strain FRD1): ~90 % per day
death of biofilm bacteria (anaerobic FRD1 biofilms; pH 6.5, 2 days): nearly complete death of biofilm bacteria
biofilm structure and cell viability relative to control biofilms (anaerobic FRD1 biofilms; pH 7.5, 2 days): no difference in biofilm structure and cell viability
average CFU/lung relative to control (PBS) (P. aeruginosa (PAO1)): reduced
toxicity in humans ([1]; each agent separately): minimal toxicity
bacteria in mouse lungs after long-term treatment (mucoid FRD1; 15 mM NO2- daily for 16 days): no bacteria detected
competitive index (mucoid FRD1; FRD1, 10^6 intratracheally instilled into CD1 mouse airways, 6 days): ~0.2
decrease of bacteria in mouse lungs (mucoid FRD1; pH 5.5, daily treatment): > 3 logs
decrease of bacteria in mouse lungs (mucoid FRD1; pH 6.5, daily treatment): > 2 logs
killing as a function of pH (FRD1/pmucA): little or no killing
biomass density/thickness of biofilm (P. aeruginosa biofilm): reduction of biomass density/thickness
growth of PAO1 (PA strain PAO1): initially impaired
competitive index (non-mucoid FRD1/pmucA; complemented strain FRD1/pmucA, CD1 mouse airways, 6 days): ~1.0
decrease of bacteria in mouse lungs (non-mucoid FRD1/pmucA; pH 6.5 and pH 5.5): not
CFU of mucoid FRD1 in mixed culture ([2]; three bacterial ratios): < 10^3 CFU/ml
viability of mucoid FRD1 in mixed culture [2]: lost viability
viability of non-mucoid FRD1/pmucA in mixed culture [2]: maintained viability
killing as a function of pH (FRD1): more effectively at lower pH
viability of non-mucoid strains [3]: remained viable

CC[C@H]1OC(=O)[C@H](C)[C@@H](O[C@H]2C[C@@](C)(OC)[C@@H](O)[C@H](C)O2)[C@H](C)[C@@H](O[C@@H]2O[C@H](C)C[C@H](N(C)C)[C@H]2O)[C@](C)(O)C[C@@H](C)CN(C)[C@H](C)[C@@H](O)[C@]1(C)O [Azithromycin]
bactericidal activity of the antibiotic when combined with NaNO2 and EDTA (P. aeruginosa): synergistically increases the bactericidal activity
result in combination with EDTA/NO2- (P. aeruginosa; compared with the other antibiotic agents): best results so far in combination

O=C(O)CN(CCN(CC(=O)O)CC(=O)O)CC(=O)O [EDTA, ethylene diamine tetraacetic acid, reference compound]
average CFU/lung relative to control (PBS) (P. aeruginosa (PAO1)): reduced
clinical course or airway microbial flora (PA): not modify the clinical course or the airway microbial flora
toxicity in humans ([1]; in vivo): minimal toxicity
biomass density/thickness of biofilm (P. aeruginosa biofilm): reduction of biomass density/thickness
MICs of EDTA upon addition of acidified nitrite (P. aeruginosa; nitrite background 7.5 mM): decreased
growth of PAO1 (PA strain PAO1): initially impaired

NC[C@H]1O[C@H](O[C@H]2[C@H](O)[C@@H](O[C@H]3O[C@H](CO)[C@@H](O)[C@H](N)[C@H]3O)[C@H](N)C[C@@H]2N)[C@H](N)C[C@@H]1O [TOBI, tobramycin]
bactericidal activity of the antibiotic when combined with NaNO2 and EDTA (P. aeruginosa): synergistically increases the bactericidal activity
growth of PAO1 (PA strain PAO1): initially impaired
killing PA (PA strain PAO1; anaerobic conditions, TOBI 2 μg/ml): not effective
